This note sets out measurements from US5935973A, “Heterocyclcarboxamide derivatives and their use as therapeutic agents” (Knoll Aktiengesellschaft, priority 1995, dated 1999).

One assay addresses T1, 5-HT1A receptors (Rattus norvegicus, UniProt P19327).
T1 construct: Hippocampal tissue from the brains of male Sprague-Dawley rats; from tissue; host or cells: rat hippocampus membranes
T1 sequence (P19327 1-422): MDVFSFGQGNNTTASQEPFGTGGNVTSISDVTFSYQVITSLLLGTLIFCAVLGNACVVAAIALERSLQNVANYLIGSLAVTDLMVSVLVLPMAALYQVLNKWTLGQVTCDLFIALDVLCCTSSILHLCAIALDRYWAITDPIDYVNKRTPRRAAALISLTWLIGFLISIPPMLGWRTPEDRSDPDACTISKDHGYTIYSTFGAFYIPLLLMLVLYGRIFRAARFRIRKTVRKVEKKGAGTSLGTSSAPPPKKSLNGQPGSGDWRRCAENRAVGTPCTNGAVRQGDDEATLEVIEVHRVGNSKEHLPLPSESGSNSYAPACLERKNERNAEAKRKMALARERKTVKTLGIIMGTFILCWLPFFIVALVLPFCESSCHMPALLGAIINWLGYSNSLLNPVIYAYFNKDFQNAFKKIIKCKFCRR
In words: inhibition of [3H]8-OH-DPAT binding to 5-HT1A receptors in rat hippocampal tissue. The note with it: at 10^-6 M; rat hippocampus, [3H]8-OH-DPAT; read-out: % displacement of radio ligand, 5-HT1A. How it is done: Hippocampal tissue from the brains of male Sprague-Dawley rats (Charles River; weight range 150-250 g) was homogenised in ice-cold 50 mM Tris-HCl buffer (pH 7.7 when measured at 25° C., 1:40 w/v) and centrifuged at 30,000 g at 4° C. for 10 minutes. The pellet was rehomogenised in the same buffer, incubated at 37° C. for 10 minutes and centrifuged at 30,000 g at 4° C. for 10 minutes. The final pellet was resuspended in 50 mM Tris-HCl buffer (pH 7.7) containing 4 mM CaCl2, 0.1% L-ascorbic acid and 10 μM pargyline hydrochloride (equivalent to 6.25 mg wet weight of tissue/ml) and used immediately in the binding assay. Aliquots (400 μl; equivalent to 2.5 mg wet weight of tissue/tube) of this suspension were added to tubes containing the ligand (50 μl; 2 nM) and distilled water (50 μl total binding) or 5-HT (50 μl; 10 μM; non-specific binding) or test compound (50 μl; at a single concentration of 10^-6 M or at 10 concentrations ranging from 10^-11 -10^-3 M). The ligand was [^3 H]8-hydroxy-2-(dipropylamino)tetralin ([^3 H]8-OH-DPAT) and the mixture was incubated at 25° C. for 30 minutes before the incubation was terminated by rapid filtration.
(§1) The filters were washed with ice-cold Tris-HCl buffer and dried. The filters were punched out into vials, scintillation fluid added and radioactivity determined by liquid scintillation counting. The percentage displacement of specific binding of the tritiated ligand was calculated for the single concentration (10^-6 M) of test compound. Displacement curves were then produced for those compounds which displaced ≥50% of specific binding of the tritiated ligand at 10^-6 M using a range of concentrations of the compound. The concentration which gave 50% inhibition of specific binding (IC50) was obtained from the curve. The inhibition coefficient Ki was then calculated using the formula [formula] in which [ligand] is the concentration of the tritiated ligand used and KD is the equilibrium dissociation constant for the ligand.

A further assay deals with α1-adrenoceptors. In words: inhibition of [7-methoxy-3H]prazosin binding to α1-adrenoceptors in rat whole cortical tissue. The following applies: at 10^-6 M; rat whole cortex, [7-methoxy-3H]prazosin; 30 min, 1 µM. How it is done: Whole cortical tissue from the brains of male Charles River CD rats weighing between 150-250 g were homogenised in ice-cold 50 mM Tris-HCl, pH 7.6 (at 25° C.; 1:40 w/v) and centrifuged at 1000 g at 4° C. for 10 minutes. The supernatant was centrifuged at 30,000 g at 4° C. for 10 minutes. The pellet was rehomogenised in 50 mM Tris-HCl, pH 7.6 (1:40 w/v) and centrifuged at 30,000 g at 4° C. for 10 minutes. The final pellet was resuspended in 50 mM Tris-HCl, pH 7.6 (equivalent to 12.5 mg wet weight of tissue/ml) and used immediately in the binding assay. Aliquots (400 μl; equivalent to 5 mg wet weight of tissue/tube) of this suspension were added to tubes containing the ligand (50 μl; 0.1 nM) and distilled water (50 μl; total binding) or phentolamine (50 μl; 5 μM; non-specific binding) or test compound (50 μl; at a single concentration of 10^-6 M or at 10 concentrations ranging from 10^-11 -10^-3 M). The ligand was [7-methoxy-^3 H]prazosin and the mixture was incubated at 30° C. for 30 minutes before the incubation was terminated by rapid filtration.
as §1

The next assay has as its target T2, D2 dopamine receptors (Rattus norvegicus, UniProt P61169).
T2 construct: Striatal tissue from the brains of male Charles River CD rats; from tissue; host or cells: rat striatum membranes
In words: inhibition of tritiated (S)-sulpiride binding to D2 dopamine receptors in rat striatal tissue. The following applies: at 10^-6 M; rat striatum, tritiated (S)-sulpiride; read-out: % displacement of radio ligand, D2. How it is done:
Striatal tissue from the brains of male Charles River CD rats weighing between 140-250 g were homogenised in ice-cold 50 mM Tris-HCl buffer (pH 7.7 when measured at 25° C.) and centrifuged at 40,000 g for 10 minutes. The pellet was resuspended in Tris salts buffer (50 mM Tris-HCl buffer containing 120 mM NaCl, 5 mM KCl, 2 mM CaCl2 and 1 mM MgCl2 with the addition of 6 mM ascorbic acid; pH 7.7 when measured at 25° C.), and again centrifuged at 40,000 g for 10 minutes. The final pellet was stored at -80° C. Before each test the pellet was resuspended in Tris salts buffer (equivalent to 2 mg wet weight of tissue/ml). Aliquots (720 μl; equivalent to 1.44 mg wet weight of tissue/tube) of this suspension were then added to tubes containing the ligand (40 μl; 1 nM) and Tris salts buffer (40 μl; total binding) or spiroperidol (40 μl; 10 nM; non-specific binding) or test compound (40 μl; at a single concentration of 10^-6 M or at 6 concentrations ranging from 10^-11 -10^-4 M). The ligand was tritiated (S)-sulpiride and the mixture was incubated at 4° C. for 40 minutes before the incubation was terminated by rapid filtration.
The filters were washed with ice-cold Tris-HCl buffer and dried. The filters were punched out in to vials, scintillation fluid added and were left for about 20 hours before being counted by scintillation spectrophotometry. The percentage displacement of specific binding of the tritiated ligand was calculated for the single concentration (10^-6 M) of test compound. Displacement curves were then produced over a range of concentrations for those compounds which displaced ≥50% of specific binding of the tritiated ligand at 10^-6 M. The concentration which gave a 50% inhibition of specific binding (IC50) was obtained from the curve. The inhibition coefficient Ki was then calculated using the formula [formula] in [ligand] is the concentration of the tritiated ligand used and KD is the 2 equilibrium dissociation constant for the ligand.

Each structure is given as a SMILES string.

T2 sequence (P61169 whole entry): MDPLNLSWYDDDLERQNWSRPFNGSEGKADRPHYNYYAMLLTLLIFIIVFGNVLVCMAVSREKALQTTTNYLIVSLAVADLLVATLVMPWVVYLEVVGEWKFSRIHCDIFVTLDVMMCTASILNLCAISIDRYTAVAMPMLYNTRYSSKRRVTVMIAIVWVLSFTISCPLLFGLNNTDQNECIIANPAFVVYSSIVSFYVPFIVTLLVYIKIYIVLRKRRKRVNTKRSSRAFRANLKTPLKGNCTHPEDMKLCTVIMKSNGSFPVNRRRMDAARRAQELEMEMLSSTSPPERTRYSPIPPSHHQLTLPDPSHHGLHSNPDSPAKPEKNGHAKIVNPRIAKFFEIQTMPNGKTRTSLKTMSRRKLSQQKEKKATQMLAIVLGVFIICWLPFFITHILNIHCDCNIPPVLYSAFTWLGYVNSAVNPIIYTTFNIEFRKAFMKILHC

In the case of `Nc1ncccc1C(=O)NCC1CCN(C[C@H]2COc3cccc(OS(=O)(=O)C(F)(F)F)c3O2)CC1` [Example 28, (S)-2-amino-N-{[1-(8-trifluoromethanesulphonyloxy-1,4-benzodioxan-2-ylmethyl)-4-piperidyl]methyl}pyridine-3-carboxamide], the inhibition at 1 µM worked out at 96% at 5-HT1A receptors and 101% at D2 dopamine receptors. For the same compound, the “% displacement of radio ligand, α1” value with α1-adrenoceptors turned out to be 98%.

Turning to `Cc1ccc2c(c1)O[C@@H](CN1CCC(CNC(=O)c3cncc(Br)c3)CC1)CO2` [Example 34, (S)-5-bromo-N-{[1-(7-methyl-1,4-benzodioxan-2-ylmethyl)-4-piperidyl]-methyl}pyridine-3-carboxamide], the inhibition at 1 µM was determined as 87% at 5-HT1A receptors and 86% at D2 dopamine receptors. For the same compound, the “% displacement of radio ligand, α1” value with α1-adrenoceptors turned out to be 68%.
